Test results published in PubChem BioAssay (NCI).
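How tested: cells in 96-well plates exposed to compound for 48 hours at five concentrations. GI50 = concentration required for 50% inhibition of growth. TGI: total growth inhibition.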

Columns and labels:
Test in all cases: NCI anticancer screen, dose series, 48 h
[1] = test system: A498 renal
[2] = test system: A549 NSCLC
[3] = test system: ACHN renal
[4] = test system: CCRF-CEM leukemia
[5] = test system: COLO 205 colon
[6] = test system: DU-145 prostate
[7] = test system: EKVX NSCLC
[8] = test system: HCT-15 colon
[9] = test system: HOP-62 NSCLC
[10] = test system: K-562 leukemia
[11] = test system: KM12 colon
[12] = test system: LOX IMVI melanoma
[13] = test system: M14 melanoma
[14] = test system: MDA-MB-435
[15] = test system: MDA-N
[16] = test system: MOLT-4 leukemia
[17] = test system: NCI-H23 lung
[18] = test system: NCI-H460 lung
[19] = test system: NCI/ADR-RES ovarian
[20] = test system: OVCAR-4 ovarian
[21] = test system: OVCAR-5 ovarian
[22] = test system: OVCAR-8 ovarian
[23] = test system: PC-3 prostate
[24] = test system: RPMI-8226 leukemia
[25] = test system: SF-268 CNS
[26] = test system: SF-295 CNS
[27] = test system: SF-539 CNS
[28] = test system: SK-MEL-2 melanoma
[29] = test system: SK-MEL-5 melanoma
[30] = test system: SK-OV-3 ovarian
[31] = test system: SN12C renal
[32] = test system: SNB-19 CNS
[33] = test system: SNB-75 CNS
[34] = test system: SR leukemia
[35] = test system: SW-620 colon
[36] = test system: T-47D breast
[37] = test system: TK-10 renal
[38] = test system: UACC-257 melanoma
[39] = test system: UACC-62 melanoma
[40] = test system: UO-31 renal
[41] = test system: 786-0 renal
[42] = test system: BT-549 breast
[43] = test system: CAKI-1 renal
[44] = test system: HCC-2998 colon
[45] = test system: HCT-116 colon
[46] = test system: HL-60(TB) leukemia
[47] = test system: HOP-92 NSCLC
[48] = test system: HS 578T breast
[49] = test system: HT29 colon
[50] = test system: IGROV1 ovarian
[51] = test system: MALME-3M melanoma
[52] = test system: MCF7 breast
[53] = test system: MDA-MB-231 breast
[54] = test system: NCI-H226 lung
[55] = test system: NCI-H522 lung
[56] = test system: OVCAR-3 ovarian
[57] = test system: RXF 393 renal
[58] = test system: SK-MEL-28 melanoma
[59] = test system: U251 CNS

## CC(=O)O[C@H]1C(=O)[C@@]2(C)[C@H]([C@H](OC(=O)c3ccccc3)[C@]3(O)C[C@H](OC(=O)[C@H](O)[C@@H](NC(=O)c4ccoc4)c4ccccc4)C(C)=C1C3(C)C)[C@]1(OC(C)=O)CO[C@@H]1C[C@@H]2O
[1]
  TGI: 0.698 µM
[2]
  TGI: > 100 µM
[3]
  GI50: 0.0584 µM
  TGI: > 100 µM
[4]
  GI50: 0.0334 µM
  TGI: > 100 µM
[5]
  TGI: 16.9 µM
[6]
  TGI: > 100 µM
[7]
  GI50: 17.2 µM
  TGI: > 100 µM
[8]
  GI50: 0.907 µM
  TGI: > 100 µM
[9]
  TGI: 16.4 µM
[10]
  GI50: 0.0337 µM
  TGI: > 100 µM
[11]
  TGI: 14.1 µM
[12]
  TGI: > 100 µM
[13]
  TGI: 0.661 µM
[14]
  TGI: 0.039 µM
[15]
  TGI: 0.0166 µM
[16]
  GI50: 0.042 µM
  TGI: > 100 µM
[17]
  TGI: 31.2 µM
[18]
  TGI: 28 µM
[19]
  TGI: > 100 µM
[20]
  TGI: > 100 µM
[21]
  TGI: 0.091 µM
[22]
  TGI: 47.8 µM
[23]
  TGI: > 100 µM
[24]
  TGI: > 100 µM
[25]
  TGI: > 100 µM
[26]
  TGI: 22.9 µM
[27]
  TGI: 0.257 µM
[28]
  GI50: 27.8 µM
[29]
  TGI: 0.399 µM
[30]
  TGI: 32.7 µM
[31]
  TGI: > 100 µM
[32]
  TGI: > 100 µM
[33]
  GI50: 0.0531 µM
[34]
  TGI: 47 µM
[35]
  TGI: > 100 µM
[36]
  GI50: 26.3 µM
  TGI: > 100 µM
[37]
  GI50: 0.164 µM
  TGI: 40.4 µM
[38]
  TGI: 68.5 µM
[39]
  TGI: 31.9 µM
[40]
  TGI: > 100 µM

## NC(Cc1ccc(OCc2ccccc2)cn1)C(=O)OCc1ccccc1 (centres undefined)
[41]
  TGI: > 100 µM
[1]
  TGI: > 100 µM
[2]
  TGI: > 100 µM
[3]
  TGI: > 100 µM
[42]
  TGI: > 100 µM
[43]
  TGI: > 100 µM
[4]
  TGI: > 100 µM
[5]
  TGI: > 100 µM
[6]
  TGI: > 100 µM
[7]
  TGI: > 100 µM
[44]
  TGI: > 100 µM
[45]
  TGI: > 100 µM
[8]
  TGI: > 100 µM
[46]
  TGI: > 100 µM
[9]
  TGI: > 100 µM
[47]
  TGI: > 100 µM
[48]
  TGI: > 100 µM
[49]
  TGI: > 100 µM
[50]
  TGI: > 100 µM
[10]
  TGI: > 100 µM
[11]
  TGI: > 100 µM
[12]
  TGI: > 100 µM
[51]
  TGI: > 100 µM
[52]
  TGI: > 100 µM
[53]
  TGI: > 100 µM
[14]
  TGI: > 100 µM
[15]
  TGI: > 100 µM
[54]
  TGI: > 100 µM
[17]
  TGI: > 100 µM
[18]
  TGI: > 100 µM
[55]
  TGI: > 100 µM
[19]
  TGI: > 100 µM
[56]
  TGI: > 100 µM
[20]
  TGI: > 100 µM
[21]
  TGI: > 100 µM
[22]
  TGI: > 100 µM
[23]
  TGI: > 100 µM
[24]
  TGI: > 100 µM
[57]
  TGI: > 100 µM
[26]
  TGI: > 100 µM
[27]
  TGI: > 100 µM
[58]
  TGI: > 100 µM
[29]
  TGI: > 100 µM
[31]
  TGI: > 100 µM
[32]
  TGI: > 100 µM
[34]
  TGI: > 100 µM
[35]
  TGI: > 100 µM
[37]
  TGI: > 100 µM
[59]
  TGI: > 100 µM
[38]
  TGI: > 100 µM
[40]
  TGI: > 100 µM
